Results taken from patent US20070049564A1 (Wyeth, priority 2005, published 2007).
≈ marks a conversion by molar mass, not a printed value. Read-outs that look alike come from different tables or passages of the source.

Assays:
E. coli GC 2236 = assay: MIC, broth microdilution; conditions: Escherichia coli
E. coli GC 2231 = assay: MIC, broth microdilution; conditions: Escherichia coli
E. coli GC 2232 = assay: MIC, broth microdilution; conditions: Escherichia coli
Procedure: (§1) Antimicrobial susceptibility testing. The in vitro activities of the antibiotics are determined by the broth microdilution method as recommended by the National Committee for Clinical Laboratory Standards (NCCLS) (1). Mueller-Hinton II broth (MHBII)(BBL Cockeysville, Md.) is the medium employed in the testing procedures. Microtiter plates containing serial dilutions of each antimicrobial agent are inoculated with each organism to yield the appropriate density (10^5 CFU/ml) in a 100 μl final volume. The plates are incubated for 18-22 hours at 35° C. in ambient air.
Representative compounds were first incubated in mouse serum for an hour prior to the in vitro testing against a panel of selected gram-positive and gram-negative bacteria strains. All compounds were also pre-incubated in water for an hour prior to testing as control. Representative compounds of Formula I were incubated in human serum prior to MIC determination.

E. coli GC 2272 = assay: MIC, broth microdilution; conditions: Escherichia coli
P. aeruginosa GC 2214 = assay: MIC, broth microdilution; conditions: Pseudomonas aeruginosa
S. aureus GC 1131 = assay: MIC, broth microdilution; conditions: Staphylococcus aureus
S. aureus GC 4536 = assay: MIC, broth microdilution; conditions: Staphylococcus aureus
S. aureus GC 2216 = assay: MIC, broth microdilution; conditions: Staphylococcus aureus
S. epidermidis GC 4935 = assay: MIC, broth microdilution; conditions: Staphylococcus epidermidis
E. faecalis GC 4555 = assay: MIC, broth microdilution; conditions: Enterococcus faecalis
E. faecalis GC 2265 = assay: MIC, broth microdilution; conditions: Enterococcus faecalis
Procedure: as §1
Representative compounds were first incubated in mouse serum for an hour prior to the in vitro testing against a panel of selected gram-positive and gram-negative bacteria strains. All compounds were also pre-incubated in water for an hour prior to testing as control.

E. faecalis GC 2267 = assay: MIC, broth microdilution; conditions: Enterococcus faecalis
E. faecalis GC 2242 = assay: MIC, broth microdilution; conditions: Enterococcus faecalis
E. faecium GC 2243 = assay: MIC, broth microdilution; conditions: Enterococcus faecium
S. pneumoniae* GC 4465 = assay: MIC, broth microdilution; conditions: Streptococcus pneumoniae
S. pneumoniae+ GC 4465 = assay: MIC, broth microdilution; conditions: Streptococcus pneumoniae
c. albicans GC 3066 = assay: MIC, broth microdilution
E. coli = assay: Range of MIC for E. coli strains; conditions: Escherichia coli
Staph. = assay: Range of MIC for Staph. strains, including MRSA; conditions: Staphylococcus aureus
Staph. aureus Smith = assay: In vivo activity (oral, iv; ED50) against Staph. aureus Smith in mice
Procedure: Representative examples of compounds of Formula I were tested for the oral efficacy using S. aureus Smith in mice.

[1] = read-out: MINIMAL INHIBITORY CONCENTRATION MIC, Human Serum
[2] = read-out: MINIMAL INHIBITORY CONCENTRATION MIC, Mouse Serum
[3] = read-out: MINIMAL INHIBITORY CONCENTRATION MIC, Water

## CCC(=O)OCOC(=O)N(CC(=O)Nc1cc(N(C)C)c2c(c1O)C(=O)C1=C(O)[C@]3(O)C(=O)C(C(N)=O)=C(O)[C@@H](N(C)C)[C@@H]3C[C@@H]1C2)C(C)(C)C [Example 49, ({[(2-{[(5aR,6aS,7S,10aS)-9-(aminocarbonyl)-4,7-bis(dimethylamino)-1,8,10a,11-tetrahydroxy-10,12-dioxo-5,5a,6,6a,7,10,10a,12-octahydrotetracen-2-yl]amino}-2-oxoethyl)(tert-butyl)amino]carbonyl}oxy)methyl propionate]
E. coli GC 2236; GC2236, read-out: MINIMAL INHIBITORY CONCENTRATION MIC, Human Serum
  MIC: 4 µg/mL (≈ 5.59 µM)
E. coli GC 2236; GC2236, read-out: MINIMAL INHIBITORY CONCENTRATION MIC, Mouse Serum
  MIC: 0.5 µg/mL (≈ 0.699 µM)
E. coli GC 2236; GC2236, read-out: MINIMAL INHIBITORY CONCENTRATION MIC, Water
  MIC: 16 µg/mL (≈ 22.4 µM)
E. coli GC 2231; GC2231, read-out: MINIMAL INHIBITORY CONCENTRATION MIC, Human Serum
  MIC: 8 µg/mL (≈ 11.2 µM)
E. coli GC 2231; GC2231, read-out: MINIMAL INHIBITORY CONCENTRATION MIC, Mouse Serum
  MIC: 0.5 µg/mL (≈ 0.699 µM)
E. coli GC 2231; GC2231, read-out: MINIMAL INHIBITORY CONCENTRATION MIC, Water
  MIC: 16 µg/mL (≈ 22.4 µM)
E. coli GC 2232; GC2232, read-out: MINIMAL INHIBITORY CONCENTRATION MIC, Human Serum
  MIC: 4 µg/mL (≈ 5.59 µM)
E. coli GC 2232; GC2232, read-out: MINIMAL INHIBITORY CONCENTRATION MIC, Mouse Serum
  MIC: 0.5 µg/mL (≈ 0.699 µM)
E. coli GC 2232; GC2232, read-out: MINIMAL INHIBITORY CONCENTRATION MIC, Water
  MIC: 16 µg/mL (≈ 22.4 µM)
E. coli GC 2272; GC2272, read-out: MINIMAL INHIBITORY CONCENTRATION MIC, Human Serum
  MIC: 2 µg/mL (≈ 2.79 µM)
E. coli GC 2272; GC2272, read-out: MINIMAL INHIBITORY CONCENTRATION MIC, Mouse Serum
  MIC: 0.5 µg/mL (≈ 0.699 µM)
E. coli GC 2272; GC2272, read-out: MINIMAL INHIBITORY CONCENTRATION MIC, Water
  MIC: 8 µg/mL (≈ 11.2 µM)
P. aeruginosa GC 2214; GC2214, read-out: MINIMAL INHIBITORY CONCENTRATION MIC, Human Serum
  MIC: > 64 µg/mL
P. aeruginosa GC 2214; GC2214, read-out: MINIMAL INHIBITORY CONCENTRATION MIC, Mouse Serum
  MIC: 32 µg/mL (≈ 44.7 µM)
P. aeruginosa GC 2214; GC2214, read-out: MINIMAL INHIBITORY CONCENTRATION MIC, Water
  MIC: > 64 µg/mL
S. aureus GC 1131; GC1131, read-out: MINIMAL INHIBITORY CONCENTRATION MIC, Human Serum
  MIC: 0.5 µg/mL (≈ 0.699 µM)
S. aureus GC 1131; GC1131, read-out: MINIMAL INHIBITORY CONCENTRATION MIC, Mouse Serum
  MIC: 0.5 µg/mL (≈ 0.699 µM)
S. aureus GC 1131; GC1131, read-out: MINIMAL INHIBITORY CONCENTRATION MIC, Water
  MIC: 0.5 µg/mL (≈ 0.699 µM)
S. aureus GC 4536; GC4536, read-out: MINIMAL INHIBITORY CONCENTRATION MIC, Human Serum
  MIC: 0.25 µg/mL (≈ 0.349 µM)
S. aureus GC 4536; GC4536, read-out: MINIMAL INHIBITORY CONCENTRATION MIC, Mouse Serum
  MIC: 0.25 µg/mL (≈ 0.349 µM)
S. aureus GC 4536; GC4536, read-out: MINIMAL INHIBITORY CONCENTRATION MIC, Water
  MIC: 0.25 µg/mL (≈ 0.349 µM)
S. aureus GC 2216; GC2216, read-out: MINIMAL INHIBITORY CONCENTRATION MIC, Human Serum
  MIC: 0.25 µg/mL (≈ 0.349 µM)
S. aureus GC 2216; GC2216, read-out: MINIMAL INHIBITORY CONCENTRATION MIC, Mouse Serum
  MIC: 0.25 µg/mL (≈ 0.349 µM)
S. aureus GC 2216; GC2216, read-out: MINIMAL INHIBITORY CONCENTRATION MIC, Water
  MIC: 0.5 µg/mL (≈ 0.699 µM)
S. epidermidis GC 4935; GC4935, read-out: MINIMAL INHIBITORY CONCENTRATION MIC, Human Serum
  MIC: 1 µg/mL (≈ 1.4 µM)
S. epidermidis GC 4935; GC4935, read-out: MINIMAL INHIBITORY CONCENTRATION MIC, Mouse Serum
  MIC: 1 µg/mL (≈ 1.4 µM)
S. epidermidis GC 4935; GC4935, read-out: MINIMAL INHIBITORY CONCENTRATION MIC, Water
  MIC: 2 µg/mL (≈ 2.79 µM)
E. faecalis GC 4555; GC4555, read-out: MINIMAL INHIBITORY CONCENTRATION MIC, Human Serum
  MIC: 0.5 µg/mL (≈ 0.699 µM)
E. faecalis GC 4555; GC4555, read-out: MINIMAL INHIBITORY CONCENTRATION MIC, Mouse Serum
  MIC: 0.25 µg/mL (≈ 0.349 µM)
E. faecalis GC 4555; GC4555, read-out: MINIMAL INHIBITORY CONCENTRATION MIC, Water
  MIC: 4 µg/mL (≈ 5.59 µM)
E. faecalis GC 2265; GC2265, read-out: MINIMAL INHIBITORY CONCENTRATION MIC, Human Serum
  MIC: 1 µg/mL (≈ 1.4 µM)
E. faecalis GC 2265; GC2265, read-out: MINIMAL INHIBITORY CONCENTRATION MIC, Mouse Serum
  MIC: 0.5 µg/mL (≈ 0.699 µM)
E. faecalis GC 2265; GC2265, read-out: MINIMAL INHIBITORY CONCENTRATION MIC, Water
  MIC: 2 µg/mL (≈ 2.79 µM)
E. faecalis GC 2267; GC2267, read-out: MINIMAL INHIBITORY CONCENTRATION MIC, Human Serum
  MIC: 1 µg/mL (≈ 1.4 µM)
E. faecalis GC 2267; GC2267, read-out: MINIMAL INHIBITORY CONCENTRATION MIC, Mouse Serum
  MIC: 0.5 µg/mL (≈ 0.699 µM)
E. faecalis GC 2267; GC2267, read-out: MINIMAL INHIBITORY CONCENTRATION MIC, Water
  MIC: 4 µg/mL (≈ 5.59 µM)
E. faecalis GC 2242; GC2242, read-out: MINIMAL INHIBITORY CONCENTRATION MIC, Human Serum
  MIC: 1 µg/mL (≈ 1.4 µM)
E. faecalis GC 2242; GC2242, read-out: MINIMAL INHIBITORY CONCENTRATION MIC, Mouse Serum
  MIC: 0.5 µg/mL (≈ 0.699 µM)
E. faecalis GC 2242; GC2242, read-out: MINIMAL INHIBITORY CONCENTRATION MIC, Water
  MIC: 2 µg/mL (≈ 2.79 µM)
E. faecium GC 2243; GC2243, read-out: MINIMAL INHIBITORY CONCENTRATION MIC, Human Serum
  MIC: 0.25 µg/mL (≈ 0.349 µM)
E. faecium GC 2243; GC2243, read-out: MINIMAL INHIBITORY CONCENTRATION MIC, Mouse Serum
  MIC: 0.25 µg/mL (≈ 0.349 µM)
E. faecium GC 2243; GC2243, read-out: MINIMAL INHIBITORY CONCENTRATION MIC, Water
  MIC: 0.5 µg/mL (≈ 0.699 µM)
S. pneumoniae* GC 4465; [1]
  MIC: 0.12 µg/mL (≈ 0.168 µM)
S. pneumoniae* GC 4465; [2]
  MIC: 0.12 µg/mL (≈ 0.168 µM)
S. pneumoniae* GC 4465; [3]
  MIC: 0.12 µg/mL (≈ 0.168 µM)
S. pneumoniae+ GC 4465; [1]
  MIC: 1 µg/mL (≈ 1.4 µM)
S. pneumoniae+ GC 4465; [2]
  MIC: 1 µg/mL (≈ 1.4 µM)
S. pneumoniae+ GC 4465; [3]
  MIC: 1 µg/mL (≈ 1.4 µM)
c. albicans GC 3066; Candida albicans, GC3066, read-out: MINIMAL INHIBITORY CONCENTRATION MIC
  MIC: > 64 µg/mL
c. albicans GC 3066; Human Serum
  MINIMAL INHIBITORY CONCENTRATION MIC: >64 UG/ML
c. albicans GC 3066; Mouse Serum
  MINIMAL INHIBITORY CONCENTRATION MIC: >64 UG/ML
E. coli; 20 h, read-out: Range of MIC, E. coli (Mouse Serum)
  MIC: 0.25 to 2 µg/mL (≈ 0.349 to 2.79 µM)
E. coli; read-out: Minimum inhibitory concentration (MIC), E. coli (Human Serum)
  MIC: 4 to 32 µg/mL (≈ 5.59 to 44.7 µM)
Staph.; MRSA, read-out: Range of MIC, Staph (Mouse Serum)
  MIC: 0.12 to 1 µg/mL (≈ 0.168 to 1.4 µM)
Staph.; MRSA, read-out: Range of MIC, Staph (Water)
  MIC: 0.12 to 2 µg/mL (≈ 0.168 to 2.79 µM)
Staph.; read-out: Minimum inhibitory concentration (MIC), Staph (Human Serum)
  MIC: 0.12 to 1 µg/mL (≈ 0.168 to 1.4 µM)
Staph.; read-out: Minimum inhibitory concentration (MIC), Staph (Water)
  MIC: 0.12 to 2 µg/mL (≈ 0.168 to 2.79 µM)
Staph. aureus Smith; Staphylococcus aureus, in Mus musculus, iv, read-out: ED50 SIV (Staph aureus Smith)
  ED50: 0.92 mg/kg
Staph. aureus Smith; Staphylococcus aureus, in Mus musculus, po, read-out: ED50 SOD (Staph aureus Smith)
  ED50: 16 mg/kg
Staph. aureus Smith; Staphylococcus aureus, in Mus musculus, po, read-out: ED50 Staph Smith SOD
  ED50: 16.6 mg/kg
Staph. aureus Smith; iv, read-out: ED50 Staph Smith SIV
  ED50: 0.92 mg/kg
